Reference: patent US5057523A, “Dipeptide quinolone derivatives” (Abbott Laboratories, priority 1989, dated 1991)
Values after ≈ are worked out from the molar mass of the structure shown. Structures can show the parent of a compound that is named as a salt.

What was measured:
[1] = test system: E. Coli Juhl; assay: Second in vitro test, MIC in Brain Heart Infusion Broth (BHIB)
[2] = test system: Stap. Aureus NCTC 10649; assay: Acute mouse protection test; assay type: in vivo; conditions: mice infected intraperitoneally with Stap. Aureus NCTC 10649, dosed at 1 and 5 hours post-infection
[3] = test system: Ps. Aeruginosa A5007; assay: Second in vitro test, MIC in Brain Heart Infusion Broth (BHIB)
[4] = test system: Strep pyogenes EES 61; assay: as above
[5] = test system: Stap. Aureus CMX 553; assay: as above
[6] = test system: E. Coli Juhl; assay: Acute mouse protection test; assay type: in vivo; conditions: mice infected intraperitoneally with E. Coli JUHL, dosed at 1 and 5 hours post-infection
[7] = test system: P. Aeruginosa A5007; assay: Acute mouse protection test; assay type: in vivo; conditions: mice infected intraperitoneally with P. Aeruginosa A5007, dosed at 1 and 5 hours post-infection
[8] = test system: PROVIDENCIA STUARTII CMX 640; assay: In vitro antibacterial activity, agar dilution MIC (BHIA); assay type: cell-based; conditions: BHI agar
[9] = test system: ENTEROCOCCUS FAECIUM ATCC 8043; assay: as above; assay type: cell-based; conditions: ENTEROCOCCUS FAECIUM ATCC 8043; BHI agar
[10] = test system: STREPTOCOCCUS PYOGENES EES61; assay: as above; assay type: cell-based; conditions: STREPTOCOCCUS PYOGENES EES61; BHI agar
[11] = test system: ESCHERICHIA COLI H560; assay: as above; assay type: cell-based; conditions: BHI agar
Description: (§1) The MIC results are in μg/ml.

[12] = test system: ESCHERICHIA COLI DC-2; assay: as above; assay type: cell-based; conditions: BHI agar
Description: as §1

[13] = test system: ESCHERICHIA COLI SS; assay: as above; assay type: cell-based; conditions: BHI agar
Description: as §1

[14] = test system: PSEUDOMONAS AERUGINOSA BMH10; assay: as above; assay type: cell-based; conditions: BHI agar
[15] = test system: PSEUDOMONAS AERUGINOSA K799/WT; assay: as above; assay type: cell-based; conditions: BHI agar
[16] = test system: STREPTOCOCCUS PYOGENES 2548 INDUC; assay: as above; assay type: cell-based; conditions: BHI agar
[17] = test system: ESCHERICHIA COLI KNK 437; assay: as above; assay type: cell-based; conditions: BHI agar
[18] = test system: ESCHERICHIA COLI JUHL; assay: as above; assay type: cell-based; conditions: BHI agar
[19] = test system: STREPTOCOCCUS AGALACTIAE CMX 508; assay: as above; assay type: cell-based; conditions: STREPTOCOCCUS AGALACTIAE CMX 508; BHI agar
[20] = test system: MICROCOCCUS LUTEUS ATCC 9341; assay: as above; assay type: cell-based; conditions: BHI agar
[21] = test system: PSEUDOMONAS AERUGINOSA A5007; assay: as above; assay type: cell-based; conditions: BHI agar
[22] = test system: STREPTOCOCCUS BOVIS A5169; assay: as above; assay type: cell-based; conditions: STREPTOCOCCUS BOVIS A5169; BHI agar
[23] = test system: PSEUDOMONAS CEPACIA 2961; assay: as above; assay type: cell-based; conditions: BHI agar

| SMILES | MIC [1] | MIC [3] | MIC [4] | MIC [5] | Oral (ED50) [2] | Oral (ED50) [6] | Oral (ED50) [7] | other results |
| --- | --- | --- | --- | --- | --- | --- | --- | --- |
| Cl.Cl.NCCCC[C@H](N)C(=O)NC1CCN(c2nc3c(cc2F)c(=O)c(C(=O)O)cn3-c2ccc(F)cc2F)C1 (stereo partly shown) [Example 46, 7-(3-Lys-amino-1-pyrrolidinyl)-1-(2,4-difluorophenyl)-6-fluoro-1,4-dihydro-4-oxo-1,8-naphthyridine-3-carboxylic acid dihydrochloride] | – | > 100 µg/mL | 100 µg/mL | 100 µg/mL | 3.4 mg/kg/day | – | – | – |
| CSCCC(N)C(=O)NC1CCN(c2nc3c(cc2F)c(=O)c(C(=O)O)cn3-c2ccc(F)cc2F)C1 (stereo not shown) [Example 23] | – | 5.0 µg/mL (≈ 9.34 µM) | – | – | 1.5 mg/kg/day | – | – | – |
| CCCC(N)C(=O)NC1CCN(c2c(F)cc3c(=O)c(C(=O)O)cn(C4CC4)c3c2F)C1 (stereo not shown) [Example 26r] | – | – | – | – | 3.0 mg/kg/day | 2.3 mg/kg/day | 7.3 mg/kg/day | – |
| CCC[C@H](NC(=O)CNC(=O)CN)C(=O)NC1CCN(c2nc3c(cc2F)c(=O)c(C(=O)O)cn3-c2ccc(F)cc2F)C1 (stereo partly shown) [Example 30] | 25 µg/mL (≈ 40.5 µM) | > 100 µg/mL | 100 µg/mL (≈ 162 µM) | 25 µg/mL (≈ 40.5 µM) | 2.2 mg/kg/day | – | 3.3 mg/kg/day | – |
| CC(C)CC(N)C(=O)NC1CCN(c2nc3c(cc2F)c(=O)c(C(=O)O)cn3-c2ccc(F)cc2F)C1 (stereo not shown) [Example 21] | – | 25 µg/mL (≈ 48.3 µM) | 6.2 µg/mL (≈ 12 µM) | – | 2.4 mg/kg/day | – | – | – |
| NC(=O)C[C@H](N)C(=O)NC1CCN(c2nc3c(cc2F)c(=O)c(C(=O)O)cn3-c2ccc(F)cc2F)C1 (stereo partly drawn) [Example 41, 7-(3-L-Asparagine-amino-1-pyrrolidinyl)-1-(2,4-6-fluoro-1,4-dihydro-4-oxo-1,8-difluorophenyl)-3-carboxylic acid hydrochloride] | – | – | – | – | 2.9 mg/kg/day | – | – | – |
| CC(N)C(=O)NC(Cc1ccccc1)C(=O)NC1CCN(c2nc3c(cc2F)c(=O)c(C(=O)O)cn3-c2ccc(F)cc2F)C1 (stereo not shown) [Example 11] | 16 µg/mL (≈ 25.7 µM) | – | – | 16.0 µg/mL (≈ 25.7 µM) | 2.0 mg/kg/day | – | – | – |
| CC(N)C(=O)NC1CCN(c2c(F)cc3c(=O)c(C(=O)O)cn(C4CC4)c3c2F)C1 (stereo not shown) [Example 26s] | – | – | – | – | 4.8 mg/kg/day | 1.8 mg/kg/day | 5.0 mg/kg/day | – |
| NCC(=O)NC1CCN(c2nc3c(cc2F)c(=O)c(C(=O)O)cn3-c2ccc(F)cc2F)C1 (stereo not shown) [Example 7] | 0.78 µg/mL (≈ 1.69 µM) | – | 0.78 µg/mL (≈ 1.69 µM) | – | 2.4 mg/kg/day | 5.0 mg/kg/day | – | – |
| O=C(O)c1cn(-c2ccc(F)cc2F)c2nc(N3CCC(NC(=O)C4CCCN4)C3)c(F)cc2c1=O (stereo not shown) [Example 28] | – | – | – | – | 3.2 mg/kg/day | – | – | – |
| NC(Cc1ccccc1)C(=O)NC1CCN(c2nc3c(cc2F)c(=O)c(C(=O)O)cn3-c2ccc(F)cc2F)C1 (stereo not shown) [Example 5] | – | – | – | – | 3.6 mg/kg/day | 3.5 mg/kg/day | – | MIC [8]: > 100 µg/mL; MIC [9]: 3.1 µg/mL (≈ 5.62 µM); MIC [10]: 3.1 µg/mL (≈ 5.62 µM); MIC [11]: 3.1 µg/mL (≈ 5.62 µM); MIC [12]: 50 µg/mL (≈ 90.7 µM); MIC [13]: .1 µg/mL (≈ 0.181 µM); MIC [14]: 25 µg/mL (≈ 45.3 µM); MIC [15]: 25 µg/mL (≈ 45.3 µM); MIC [16]: .78 µg/mL (≈ 1.41 µM); MIC [17]: 100 µg/mL (≈ 181 µM); MIC [18]: 3.1 µg/mL (≈ 5.62 µM); MIC [19]: 3.1 µg/mL (≈ 5.62 µM); MIC [20]: 25 µg/mL (≈ 45.3 µM); MIC [21]: 50 µg/mL (≈ 90.7 µM); MIC [22]: 6.2 µg/mL (≈ 11.2 µM); MIC [23]: > 100 µg/mL |
| CCCC(N)C(=O)NC1CCN(c2cc3c(cc2F)c(=O)c(C(=O)O)cn3C2CC2)C1 (stereo not shown) [Example 26l] | – | – | – | – | – | 9.4 mg/kg/day | – | – |
| NC(Cc1ccc(O)cc1)C(=O)NC1CCN(c2nc3c(cc2F)c(=O)c(C(=O)O)cn3-c2ccc(F)cc2F)C1 (stereo not shown) [Example 13] | – | 50 µg/mL (≈ 88.1 µM) | – | – | 1.7 mg/kg/day | – | – | – |
| Cl.N[C@@H](CC(=O)O)C(=O)NC1CCN(c2nc3c(cc2F)c(=O)c(C(=O)O)cn3-c2ccc(F)cc2F)C1 (stereo partly drawn) [Example 45, 7-(3-L-Asp-amino-1-pyrrolidinyl)-1-(2,4-difluorophenyl)-6-fluoro-1,4-dihyd ro-4-oxo-1,8-naphthyridine-3-carboxylic acid hydrochloride] | – | – | – | – | 1.5 mg/kg/day | – | 13.0 mg/kg/day | – |
| CC(N)C(=O)NC1CCN(c2nc3c(cc2F)c(=O)c(C(=O)O)cn3-c2ccc(F)cc2F)C1 (stereo not shown) [Example 17] | 0.5 µg/mL (≈ 1.05 µM) | 16 µg/mL (≈ 33.7 µM) | – | 2.0 µg/mL (≈ 4.21 µM) | 1.7 mg/kg/day | 2.0 mg/kg/day | – | – |

The next lines start with results.

| MIC [1] | MIC [3] | MIC [4] | MIC [5] | SMILES | Oral (ED50) [2] | Oral (ED50) [6] | Oral (ED50) [7] | other results |
| --- | --- | --- | --- | --- | --- | --- | --- | --- |
| 0.39 µg/mL (≈ 0.803 µM) | 6.2 µg/mL (≈ 12.8 µM) | – | – | CCCC(N)C(=O)NC1CCN(c2nc3c(cc2F)c(=O)c(C(=O)O)cn3-c2ccc(F)cc2)C1 (stereo not shown) [Example 26i] | 5.3 mg/kg/day | – | – | – |
| 12.5 µg/mL | > 100 µg/mL | 25 µg/mL | 25 µg/mL | CS(=O)(=O)CC[C@H](N)C(=O)NC1CCN(c2nc3c(cc2F)c(=O)c(C(=O)O)cn3-c2ccc(F)cc2F)C1.Cl (stereo partly drawn) [Example 31c, 7-[3 L-Methioninesulfone Amino-1-Pyrrolidinyl]-1-(2,4-Difluorophenyl)-6-Fluoro-1,4-Dihydro-4-Oxo 1,8-Naphthyridine 3-Carboxylic Acid Hydrochloride] | 1.8 mg/kg/day | 1.8 mg/kg/day | 7.8 mg/kg/day | – |
| 0.78 µg/mL (≈ 1.55 µM) | 6.2 µg/mL (≈ 12.3 µM) | – | 0.39 µg/mL (≈ 0.776 µM) | CCCC(N)C(=O)NC1CCN(c2cc3c(cc2F)c(=O)c(C(=O)O)cn3-c2ccc(F)cc2F)C1 (stereo not shown) [Example 26b] | – | – | – | – |
| 0.78 µg/mL (≈ 1.61 µM) | 6.2 µg/mL (≈ 12.8 µM) | – | 0.78 µg/mL (≈ 1.61 µM) | CCCC(N)C(=O)NC1CCN(c2cc3c(cc2F)c(=O)c(C(=O)O)cn3-c2ccc(F)cc2)C1 (stereo not shown) [Example 26h] | 4.0 mg/kg/day | – | – | – |
| 16 µg/mL | 64 µg/mL | 32 µg/mL | 16 µg/mL | Cl.NCC(=O)N[C@@H](Cc1ccccc1)C(=O)NC1CCN(c2cc3c(cc2F)c(=O)c(C(=O)O)cn3-c2ccc(F)cc2F)C1 (stereo partly drawn) [Example 26jj, 1-(2,4-Difluorophenyl)-6-Fluoro-7-(3-Gly-L-Phe -Amino 1-Pyrrolidinyl)-1,4-Dihydro-4-Oxo-Quinoline-3-Carboxylic Acid Hydrochloride] | – | – | – | – |
| 64 µg/mL | > 64 µg/mL | 32 µg/mL | 16 µg/mL | Cl.Cl.N[C@@H](Cc1c[nH]cn1)C(=O)NC1CCN(c2nc3c(cc2F)c(=O)c(C(=O)O)cn3-c2ccc(F)cc2F)C1 (stereo partly drawn) [Example 44c, 7-[3-L-Histidine-Amino-1-Pyrrolidinyl)-1-(2,4-Difluorophenyl)-6-Fluoro-1,4-Dihydro-4-oxo-1,8-Naphthyridine-3-Carboxylic Acid Dihydrochloride] | 4.0 mg/kg/day | – | 51.3 mg/kg/day | – |
| 0.2 µg/mL (≈ 0.449 µM) | – | 3.1 µg/mL (≈ 6.96 µM) | 0.39 µg/mL (≈ 0.875 µM) | CC(C)CC(N)C(=O)NC1CCN(c2nc3c(cc2F)c(=O)c(C(=O)O)cn3C2CC2)C1 (stereo not shown) [Example 26o] | 4.0 mg/kg/day | 1.2 mg/kg/day | 6.2 mg/kg/day | – |
| – | – | 6.2 µg/mL (≈ 14.8 µM) | – | CCC[C@H](N)C(=O)NC1CCN(c2nc3c(cc2F)c(=O)c(C(=O)O)cn3CC)C1 (stereo partly shown) [Example 26ff] | – | – | – | – |
| 0.39 µg/mL (≈ 0.904 µM) | – | 3.1 µg/mL (≈ 7.18 µM) | 0.39 µg/mL (≈ 0.904 µM) | CCCC(N)C(=O)NC1CCN(c2nc3c(cc2F)c(=O)c(C(=O)O)cn3C2CC2)C1 (stereo not shown) [Example 26p] | 4.5 mg/kg/day | – | 9.1 mg/kg/day | – |
